# Laboratory results: patent publication US20150210796A1, “Novel Compound, Novel Polymer, Colorant Including the Same, Positive Photosensitive Resin Composition Including the Same, and Color Filter” (Samsung SDI Co., Ltd., priority 2014, published 2015)
# Assay: Solubility: dissolution state of compound in dilution solvent
# Type: physicochemical
# Conditions: agitated at 25° C. and 100 rpm for 1 hour; for Amount of dissolved compound, diluted solvent (Anone): 0.5 g compound added to Anone (cyclohexanone); for Amount of dissolved compound, diluted solvent (PGMEA): 0.5 g compound added to PGMEA
# Protocol: 0.5 g of each compound represented by Chemical Formulae 3-1 and 7-1 is respectively added to a dilution solvent (PGMEA, Anone, MeOH) to prepare each solution, the solution is agitated at 25° C. and 100 rpm for 1 hour with a mix rotor (MIXROTAR VMR-5, Luchi Deiseido Co., Ltd.) to examine dissolution state of the compound (the content of the dissolved compound), and the results are provided in the following Table 1. (Anone indicates cyclohexanone)
"Amount of dissolved compound, diluted solvent (Anone)","Amount of dissolved compound, diluted solvent (PGMEA)","Amount of dissolved compound, diluted solvent (MeOH) (0.5 g compound added to MeOH)",Structure (SMILES)
equal to 0.1 wt %,to 0.1 wt %,,C=C(C)C(=O)OCCNS(=O)(=O)c1ccc(-c2c3ccc(=[N+](CC)CC)cc-3oc3cc(N(CC)CC)ccc23)c(S(=O)(=O)[O-])c1 [Chemical Formula 3-1]
3.0 wt %,0.1 wt %,equal to 10.0 wt %,C=C(C)C(=O)OCCN(CCCCCCCCCCCCCCCC)S(=O)(=O)c1ccc(-c2c3ccc(=[N+](CC)CC)cc-3oc3cc(N(CC)CC)ccc23)c(S(=O)(=O)[O-])c1 [Chemical Formula 7-1]
